Data on 2 molecules can be found in patent US20070155771A1, “Methods and means for treating protein conformational disorders” (priority 2003, published 2007).

Test [1] has as its system COS-7 cells expressing EGFP tagged wild-type HD exon 1 protein with 23 glutamine repeats, EGFP-polyalanine with 7 repeats or empty EGFP. Nature of the test: Control constructs (Q23, A7, empty EGFP) in transiently transfected COS-7 cells. It is filed as cell-based, African green monkey. As to conditions: 10 mM 3-MA. As for the experimental part:
African green monkey kidney cells (COS-7) were grown in Dulbecco's Modified Eagle Medium (DMEM, Sigma) supplemented with 10% Fetal Bovine Serum (FBS), 100 U/ml Penicillin/Streptomycin, 2 mM L-Glutamine and 1 mM Sodium Pyruvate at 37° C., 5% Carbon dioxide. The cells were grown on coverslips in six-well plates for immunofluorescence analysis, or were directly grown in six-well plates to 60-80% confluency for 24 hours for western blot analysis. Transfection was done using LipofectAMINE reagent (Invitrogen) using the manufacturer's protocol. The transfection mixture was replaced by normal culture medium after 5 hours incubation at 37° C. and the transfected cells were analysed by immunofluorescence or immunoblot 48 hours after transfection. […] Equal amounts of water or DMSO were added to the untreated controls, where relevant. The cells on coverslips were rinsed with 1×PBS, fixed with 4% paraformaldehyde in 1×PBS for 20 min and mounted in […] supplemented with 4',6-diamidino-2-phenylindole (DAPI, 3 μg/ml, Sigma) to allow visualisation of nuclear morphology. […] Aggregate formation and nuclear morphology were assessed using a fluorescence microscope. 200 EGFP positive COS-7 cells were selected and the proportion of cells with aggregates was counted. […]

Test [2] deals with mTOR-dependent TOP-translation. In words: Luciferase reporter assay with non-typical TOP sequence in COS-7 cells co-transfected with Q23 or Q74. It is filed as cell-based, African green monkey. As for the experimental part: PC12 cells stably expressing Q23 or Q74 were transfected with a luciferase construct having a 5′ untranslated region from the eEF2 gene containing a terminal oligopyrimidine tract (TOP-luciferase) or without the TOP sequence (Control-luciferase) along with β-galactosidase (to control transfection efficiency). Transfected cells were maintained in serum free medium with doxycycline for 36 hours following which the cells were stimulated with 15% serum with or without rapamycin for 3 h. Cells were then lysed and luciferase assays were performed according to standard protocol. COS-7 cells were co-transfected with Q23 or Q74 with control- or TOP-luciferase along with β-gal and experiments were performed as above. […] Experiments were performed in sextuplicate and repeated several times.
The data in FIG. 11C is represented as explained above for FIG. 10C.

For test [3], the system named is LC3-stained vesicles (autophagosomes). Nature of the test: Number of LC3-stained vesicles (autophagic activity). It is filed as cell-based. As to conditions: rapamycin treatment. An excerpt: Immunocytochemistry was done in COS-7 cells fixed with 4% paraformaldehyde (Sigma). Free-floating mouse brain sections from HD transgenic and control brains and paraffin-embedded HD grade III and control brain slices spanning the caudate and putamen regions were used for histochemical analysis. Primary antibodies used: anti-mTOR, anti-phospho-mTOR (Ser2448), anti-4E-BP1, anti-phospho-S6 (Ser235/236) (Cell signalling technologies), anti-LC3 (kind gift from Dr Yoshimori) and anti-huntingtin and anti-ubiquitin (both from Chemicon). Immunohistochemistry was performed by standard fluorescence methods or peroxidase labelling using Vectastain Avidin: Biotinylated enzyme Complex (ABC) kit. Relevant negative controls without the primary antibodies were performed alongside all the experiments.
LC3-II is a form of microtubule associated protein-1 light chain-3 (MAP-LC3), which is associated with mammalian autophagosomes (Kabeya, Y. et al. Embo J 19, 5720-5728 (2000)). […] While this effect was subtle, it was consistent and reproducible in four independent experiments. In addition, LC3-II increased upon induction of mutant huntingtin fragment expression in the stable PC12 cells, while no difference was seen upon induction of the Q23 cells. Another way one can score autophagic activity is to assess the number of LC3-stained vesicles.

For `Cn1cnc(N)c2ncnc1-2` [3-MA, 3-methyl adenine], in test [1], the “aggregate formation in cells expressing Q23 or A7” value is “did not cause aggregate formation” and the “levels of empty EGFP” value is given as “did not cause any change”.

As to rapamycin, the figures for the “rapamycin-dependent reduction in luciferase activity (non-typical TOP sequence)” value in test [2] (COS-7 cells transfected with Q23) and in test [2] (COS-7 cells transfected with Q74) were 23% and “no such effect”, respectively. In test [3], the “number of LC3-stained vesicles” value was “marked increase”.
